Where a SMILES comes first, the peptide text is derived from it.
Target: T1, EB1_191–260 (EB1c) (Homo sapiens, UniProt Q15691)
T1 construct: Human EB1 (Uniprot code Q15691), residues 191–260, was cloned into pOPINS vector; SUMO fusion protein (cleaved yes); 6xHis (cleaved yes); made in house; host or cells: E. coli BL21 Star (DE3)
T1 sequence (Q15691 191-260): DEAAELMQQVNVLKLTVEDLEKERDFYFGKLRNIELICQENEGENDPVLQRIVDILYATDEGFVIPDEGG
Assay: 1H-15N HSQC NMR ligand screening / titration (chemical shift perturbations, KD by curve fitting)
Format: binding
Details: NMR titration curves (Tyr247) fitted to two-state exchange model; 50 μM protein; read-out: estimated KD
Text: The ^1H and ^15N resonances were fully assigned using complementary pairs of triple resonance NMR spectra - CBCA(CO)NH/HNCACB for Cα and Cβ and HNCO/HN(CA)CO for CO connectivities.
Ligand-induced chemical shift perturbations (CSPs) in NH resonances on addition of the ligand were used as an indication of ligand binding and location of the binding site.
NMR spectra were collected on Bruker Avance III 600 and 800 MHz spectrometers equipped with CryoProbes. Spectra were processed with TopSpin (Bruker) and analysed using CCPNmr Analysis[35]. ^1H-^15N HSQC ligand screening ^1H-^15N- Heteronuclear Single Quantum Coherence (HSQC) experiments for ligand binding screening were performed using 0.05 mM ^15N-labelled EB1 in 20 mM phosphate pH 6.5, 50 mM NaCl, 0.5 mM TCEP, 0.02% (w/v) NaN3 in the absence or presence of ligands. To eliminate any small shifts induced by the small amounts of DMSO used to dissolve the compounds, DMSO concentration was kept constant in all experiments.
The dotted lines connect the values calculated for the best-fit curves at the titration points. Ligand concentration corresponds to the excess of ligand (e.g. 10-fold excess, 20-fold excess) to the protein concentration (50 μM). Binding constants were evaluated by fitting the experimental data to the […]
∆δ = ∆δ {([P] + [L] + K ) − [([P] + [L] + K )2 − 4[P] [L] ]1⁄2}⁄2[P] […]

Kd [mM] | Structure (SMILES)
14 ± 1.9 | CC[C@H](C)[C@H](NC(=O)[C@H](CCCCN)NC(=O)[C@@H](N)CO)C(=O)N1CCC[C@H]1C(=O)O [SKIP, reference compound] (H-SKIP-OH)
6 ± 1 | Cc1c(NC(=O)[C@@H](C)Sc2nnnn2C2CCCC2)c(=O)n(-c2ccccc2)n1C [1d]
10 ± 3 | C[C@@H](Sc1nnnn1C1CCCC1)C(=O)NCc1ccco1 [1a]
